The values that follow come from patent US20140179688A1, “PLOD-2 Modulators and Their Use in the Treatment of Skin” (AVON PRODUCTS, INC., priority 2012, published 2014).

The test concerns PLOD-2. Kind of test: PLOD-2 expression by qRT-PCR versus other anti-aging actives (Example 5). It is filed as cell-based, Human. Particulars: for Significant Increases in PLOD-2 Expression: 48 hours, fibroblasts, relative to vehicle; for induction of a significant level of PLOD-2 in skin cells: concentrations as in Table 5. The method, then:
Normal Human Dermal Fibroblasts were Grown in DMEM (Mediatech; cat. #: 15-013-CV) containing 10% Fetal Bovine Serum (Perbio; cat. #: SH30070.03), Penicillin/Streptomycin (Mediatech, Cat #30-001-C1), L-Glutamine (Mediatech; cat. #: 25-005-CI) at 37° C. and 10% CO2. […] RNA was isolated using RNeasy RNA extraction kit (74106) from Qiagen. RNA concentrations were determined using NanoDrop Spectrophotometer ND 1000 ([…]).
RT reactions were conducted in a total volume of 20 μl using the High Capacity cDNA kit from AB (PN 4368814). The RT mixture was prepared to contain 2 μl 10× TaqMan RT buffer, 1.2 μl dNTP mix ([…]), 1.0 μl 10× Random Hexamer, 1 μl RNase Inhibitor, 1 μl MultiScribe Reverse Transcriptase ([…]), 100 ng of RNA, and RNase-free water to make up the final volume of 20 μl. The reaction was incubated at 25° C. for 10 min, 45° C. for 45 min, and then 95° C. for 5 min in a BIORAD MY CYCLER.
QPCR was carried out using Applied Biosystems Universal PCR Master Mix (PN 4369016). The mixture contained 10 μl of Taqman Universal PCR mix, 1 μl of primer and probe mix, 2 μl of RT product, and 7 μl of deionized water. All probes, Taqman assays were, were purchased from Applied Biosystems, Hs01118190 ml for PLOD-2, and human GAPDH (PN 4352934). The temperature profiles for qPCR were 50° C. for 2 min, and 95° C. for 10 min for 1 cycle, then at 95° C. for 15 sec, and 60° C. for 1 min for 40 cycles carried out in Stratagene Mx 3005P qPCR machine.
RNA isolated from cells were analyzed by qRT-PCR for expression levels of PLOD-2, using GAPDH as an internal control.
A general note: In qPCR the cycle at which signal appears reflects the starting amount.

Regarding `CC1=C(/C=C/C(C)=C/C=C/C(C)=C/CO)C(C)(C)CCC1` [Retinol], the “induction of a significant level of PLOD-2 in skin cells” value is given as “did not induce a significant level of PLOD-2”. For the same compound, the “Significant Increases in PLOD-2 Expression” value (from here on “Significant Increases”) (5 μM) is “No”. Also, under “10 μM”, the “Significant Increases” value was “No”.

Take `COc1ccc(Cc2nc(=O)c(CCC(=O)N3CCC(C)CC3)n[nH]2)cc1OC` [ALB-H09784893]: the “induction of a significant level of PLOD-2 in skin cells” value is “significantly stimulate”.

As to `Oc1ccc(C=Cc2cc(O)cc(O)c2)cc1` [Resveratrol], the “induction of a significant level of PLOD-2 in skin cells” value was “did not induce a significant level of PLOD-2”. For the setting “5 μM”, the “Significant Increases” value is “No”. In addition, the “Significant Increases” value (10 μM) is listed as “No”.

Consider Hyaluronic Acid, for which the “induction of a significant level of PLOD-2 in skin cells” value is “did not induce a significant level of PLOD-2”. Moreover, the “Significant Increases” value (0.001%) is “No”. Under “0.005%”, the “Significant Increases” value is recorded as “No”.

On to `NC(=O)c1cccnc1` [Niacinamide], for which the “induction of a significant level of PLOD-2 in skin cells” value was “did not induce a significant level of PLOD-2”. The “Significant Increases” value (0.05%) is recorded as “No”. The “Significant Increases” value (0.10%) is “No”.

In the case of `O=C(O)CO` [Glycolic Acid (AHA), Glycolic Acid], the “induction of a significant level of PLOD-2 in skin cells” value is reported as “did not induce a significant level of PLOD-2”. In addition, the “Significant Increases” value (0.05%) is reported as “No”. Further, the “Significant Increases” value (0.10%) was “No”.

With N-Acetyl-Tyrosinamide, the “induction of a significant level of PLOD-2 in skin cells” value is “significantly stimulate”.

For the compound `N#Cc1cccc(CN2CCNC(=O)CC2c2nccs2)c1` (centres unmarked) [ALB-H16063163], the “induction of a significant level of PLOD-2 in skin cells” value is recorded as “significantly stimulate”.

Turning to `COC1=C(OC)C(=O)C(C/C=C(\C)CC/C=C(\C)CC/C=C(\C)CC/C=C(\C)CC/C=C(\C)CC/C=C(\C)CC/C=C(\C)CC/C=C(\C)CC/C=C(\C)CCC=C(C)C)=C(C)C1=O` [Coenzyme Q10], the “Significant Increases” value by setting is: (5 μM) “Yes (11%)”; (10 μM) “Yes (24%)”.
